Data: patent US9169254B2, “Spiroimidazolone derivative” (Chugai Seiyaku Kabushiki Kaisha, priority 2009, dated 2015)
Where a name gives a salt, the structure may show the parent alone.

Biological target: T1, human PTH1 receptor (Homo sapiens, UniProt Q03431)
T1 sequence (Q03431 27-593): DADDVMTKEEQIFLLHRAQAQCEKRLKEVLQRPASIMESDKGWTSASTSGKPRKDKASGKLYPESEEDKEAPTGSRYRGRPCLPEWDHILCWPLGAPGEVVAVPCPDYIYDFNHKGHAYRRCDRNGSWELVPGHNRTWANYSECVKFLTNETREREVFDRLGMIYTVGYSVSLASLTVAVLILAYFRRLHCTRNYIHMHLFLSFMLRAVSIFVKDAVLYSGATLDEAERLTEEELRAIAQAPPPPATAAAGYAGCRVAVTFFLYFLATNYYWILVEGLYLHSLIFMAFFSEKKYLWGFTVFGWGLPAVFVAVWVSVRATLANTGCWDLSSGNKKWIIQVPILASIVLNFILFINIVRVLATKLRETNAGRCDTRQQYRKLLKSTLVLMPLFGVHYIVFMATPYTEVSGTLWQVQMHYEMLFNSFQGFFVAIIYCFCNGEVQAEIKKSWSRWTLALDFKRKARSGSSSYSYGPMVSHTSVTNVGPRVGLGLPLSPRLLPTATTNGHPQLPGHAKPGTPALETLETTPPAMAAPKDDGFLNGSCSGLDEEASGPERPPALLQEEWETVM
Assay: In vitro cAMP signal activity in HKRK-B7 cells (LLC-PK1 cells overexpressing the human PTH1 receptor)
Type: cell-based
Details: HKRK-B7 cells, compound at 1×10^−3 M

[1] = cAMP produced as percentage of that produced by hPTH(1-34) at 100 nM

| Structure (SMILES) | cAMP production activity (%) [1] | cAMP production activity (%) ([…], 0.1 µM) |
| --- | --- | --- |
| Cc1cc(C(=O)N2CCC(O)(CF)CC2)cc(C)c1/C=C/S(=O)(=O)N1CCC2(CC1)N=C(c1ccc(C(F)(F)F)c(OCC(F)(F)C(F)F)c1)NC2=O [Compound 1274, 8-{(E)-2-[4-(4-fluoromethyl-4-hydroxy-piperidine-1-carbonyl)-2,6-dimethyl-phenyl]-ethenesulfonyl}-2-[3-(2,2,3,3-tetrafluoro-propoxy)-4-trifluoromethyl-phenyl]-1,3,8-triaza-spiro[4.5]dec-1-en-4-one] | 81% |  |
| Cc1cc(C(=O)N2CCC(O)(CF)CC2)cc(C)c1CCS(=O)(=O)N1CCC2(CC1)N=C(c1ccc3c(c1)OC(F)(F)O3)NC2=O [Compound 1275, 2-(2,2-difluoro-benzo[1,3]dioxol-5-yl)-8-{2-[4-(4-fluoromethyl-4-hydroxy-piperidine-1-carbonyl)-2,6-dimethyl-phenyl]-ethanesulfonyl}-1,3,8-triaza-spiro[4.5]dec-1-en-4-one] | 89% |  |
| Cc1cc(C(=O)N2CCC(O)(CF)CC2)cc(C)c1CCS(=O)(=O)N1CCC2(CC1)N=C(c1ccc(OC(F)(F)F)cc1)NC2=O [Compound 1276, 8-{2-[4-(4-fluoromethyl-4-hydroxy-piperidine-1-carbonyl)-2,6-dimethyl-phenyl]-ethanesulfonyl}-2-(4-trifluoromethoxy-phenyl)-1,3,8-triaza-spiro[4.5]dec-1-en-4-one] | 140% |  |
| Cc1cc(C2=NC3(CCN(S(=O)(=O)CCc4c(C)cc(C(=O)N5CCC(O)(CF)CC5)cc4C)CC3)C(=O)N2)ccc1C(F)(F)F [Compound 1277, 8-{2-[4-(4-fluoromethyl-4-hydroxy-piperidine-1-carbonyl)-2,6-dimethyl-phenyl]-ethanesulfonyl}-2-(3-methyl-4-trifluoromethyl-phenyl)-1,3,8-triaza-spiro[4.5]dec-1-en-4-one] | 95% |  |
| Cc1cc(C(=O)N2CCC(O)(CF)CC2)cc(C)c1CCS(=O)(=O)N1CCC2(CC1)N=C(c1ccc(C(F)(F)F)c(Cl)c1)NC2=O [Compound 1278, 2-(3-chloro-4-trifluoromethyl-phenyl)-8-{2-[4-(4-fluoromethyl-4-hydroxy-piperidine-1-carbonyl)-2,6-dimethyl-phenyl]-ethanesulfonyl}-1,3,8-triaza-spiro[4.5]dec-1-en-4-one] | 95% |  |
| Cc1cc(C(=O)N2CCC(O)(CF)CC2)cc(C)c1CCS(=O)(=O)N1CCC2(CC1)N=C(c1ccc(C(F)(F)F)c(OCC(F)(F)C(F)F)c1)NC2=O [Compound 1279, 8-{2-[4-(4-fluoromethyl-4-hydroxy-piperidine-1-carbonyl)-2,6-dimethyl-phenyl]-ethanesulfonyl}-2-[3-(2,2,3,3-tetrafluoro-propoxy)-4-trifluoromethyl-phenyl]-1,3,8-triaza-spiro[4.5]dec-1-en-4-one] | 113% |  |
| Cc1cc(C(=O)N2CCC(O)(CF)CC2)cc(C)c1/C=C/S(=O)(=O)N1CCC2(CC1)N=C(c1ccc3c(c1)OC(F)(F)O3)NC2=O [Compound 1280, 2-(2,2-difluoro-benzo[1,3]dioxol-5-yl)-8-{(E)-2-[4-(4-fluoromethyl-4-hydroxy-piperidine-1-carbonyl)-2,6-dimethyl-phenyl]-ethenesulfonyl}-1,3,8-triaza-spiro[4.5]dec-1-en-4-one] | 74% |  |
| Cc1cc(C(=O)N2CCC(O)(CF)CC2)cc(C)c1CCS(=O)(=O)N1CCC2(CC1)N=C(c1ccc3c(c1)OC(F)(F)C(F)(F)O3)NC2=O [Compound 1281, 8-{2-[4-(4-fluoromethyl-4-hydroxy-piperidine-1-carbonyl)-2,6-dimethyl-phenyl]-ethanesulfonyl}-2-(2,2,3,3-tetrafluoro-2,3-dihydro-benzo[1,4]dioxin-6-yl)-1,3,8-triaza-spiro[4.5]dec-1-en-4-one] | 95% |  |
| Cc1cc(C(=O)N2CCC(O)CC2)cc(C)c1/C=C/S(=O)(=O)N1CCC2(CC1)N=C(c1cccc(CC#N)c1)NC2=O [Compound 1282, [3-(8-{(E)-2-[4-(4-Hydroxy-piperidine-1-carbonyl)-2,6-dimethyl-phenyl]-ethenesulfonyl}-4-oxo-1,3,8-triaza-spiro[4.5]dec-1-en-2-yl)-phenyl]-acetonitrile] | 63% |  |
| Cc1cc(OC2CCNCC2)ccc1/C=C/S(=O)(=O)N1CCC2(CC1)N=C(c1cccc(OC(F)(F)F)c1)NC2=O [Compound 1283, 8-{(E)-2-[2-Methyl-4-(piperidin-4-yloxy)-phenyl]-ethenesulfonyl}-2-(3-trifluoromethoxy-phenyl)-1,3,8-triaza-spiro[4.5]dec-1-en-4-one trifluoroacetate] | 18% |  |
| Cc1cc(CN)ccc1CCS(=O)(=O)N1CCC2(CC1)N=C(C1CCC(CCC(F)(F)F)CC1)NC2=O.O=C(O)C(F)(F)F (stereo not shown) [Compound 1284, 8-[2-(4-aminomethyl-2-methyl-phenyl)-ethanesulfonyl]-2-[4-(3,3,3-trifluoro-propyl)-cyclohexyl]-1,3,8-triaza-spiro[4.5]dec-1-en-4-one] | 2.5% |  |
| Cc1cc(N2CCNCC2=O)ccc1/C=C/S(=O)(=O)N1CCC2(CC1)N=C(C1CCC(C)CC1)NC2=O (stereo not shown) [Compound 1285, 2-(4-methyl-cyclohexyl)-8-{(E)-2-[2-methyl-4-(2-oxo-piperazin-1-yl)-phenyl]-ethenesulfonyl}-1,3,8-triaza-spiro[4.5]dec-1-en-4-one] | 67% |  |
| CNc1cc(C)c(CCS(=O)(=O)N2CCC3(CC2)N=C(C2CCCN2)NC3=O)c(C)c1 (stereo not shown) [Compound 1286, 8-[2-(2,6-Dimethyl-4-methylamino-phenyl)-ethanesulfonyl]-2-pyrrolidin-2-yl-1,3,8-triaza-spiro[4.5]dec-1-en-4-one dihydrochloride] | 35% |  |
| CNc1cc(C)c(CCS(=O)(=O)N2CCC3(CC2)N=C(C(C)(F)F)NC3=O)c(C)c1.Cl [Compound 1287, 2-(1,1-difluoro-ethyl)-8-[2-(2,6-dimethyl-4-methylamino-phenyl)-ethanesulfonyl]-1,3,8-triaza-spiro[4.5]dec-1-en-4-one hydrochloride] | 64% |  |
| Cl.[2H]C([2H])([2H])Nc1cc(C)c(/C=C/S(=O)(=O)N2CCC3(CC2)N=C(c2ccc(F)c(C(F)(F)F)c2)NC3=O)c(C)c1 [Compound 1288, 8-[(E)-2-(2,6-dimethyl-4-[1,1,1-^2H3]methylamino-phenyl)-ethenesulfonyl]-2-(4-fluoro-3-trifluoromethyl-phenyl)-1,3,8-triaza-spiro[4.5]dec-1-en-4-one hydrochloride] | 54% |  |
| CNCc1cc(C)c(/C=C/S(=O)(=O)N2CCC3(CC2)N=C(C2CCC(C)CC2)NC3=O)c(C)c1 (stereo not shown) [Compound 1289, 8-[(E)-2-(2,6-Dimethyl-4-methylaminomethyl-phenyl)-ethenesulfonyl]-2-(4-methyl-cyclohexyl)-1,3,8-triaza-spiro[4.5]dec-1-en-4-one] | 17% |  |
| Cc1cc(CN)cc(C)c1/C=C/S(=O)(=O)N1CCC2(CC1)N=C(C1CCC(CCC(F)(F)F)CC1)NC2=O (stereo not shown) [Compound 1290, 8-[(E)-2-(4-aminomethyl-2,6-dimethyl-phenyl)-ethenesulfonyl]-2-[4-(3,3,3-trifluoro-propyl)-cyclohexyl]-1,3,8-triaza-spiro[4.5]dec-1-en-4-one] | 6.3% |  |
| Cc1cc(CN)cc(C)c1/C=C/S(=O)(=O)N1CCC2(CC1)N=C(C1CCC(C)CC1)NC2=O (stereo not shown) [Compound 1291, 8-[(E)-2-(4-aminomethyl-2,6-dimethyl-phenyl)-ethenesulfonyl]-2-(4-methyl-cyclohexyl)-1,3,8-triaza-spiro[4.5]dec-1-en-4-one] | 48% |  |
| CNCc1cc(C)c(/C=C/S(=O)(=O)N2CCC3(CC2)N=C(C2CCC(CCC(F)(F)F)CC2)NC3=O)c(C)c1 (stereo not shown) [Compound 1292, 8-[(E)-2-(2,6-dimethyl-4-methylaminomethyl-phenyl)-ethenesulfonyl]-2-[4-(3,3,3-trifluoro-propyl)-cyclohexyl]-1,3,8-triaza-spiro[4.5]dec-1-en-4-one] | 14% |  |
| CC[C@H]1CC[C@H](C2=NC3(CCN(S(=O)(=O)CCc4ccc(N)c(Cl)c4C)CC3)C(=O)N2)CC1 [Compound 1293, 8-[2-(4-Amino-3-chloro-2-methyl-phenyl)-ethanesulfonyl]-2-(4-ethyl-cyclohexyl)-1,3,8-triaza-spiro[4.5]dec-1-en-4-one] | 84% |  |
| CC(=O)N1CCC(N(C(C)=O)c2ccc(/C=C/S(=O)(=O)N3CCC4(CC3)N=C(c3cccc(OC(F)(F)F)c3)NC4=O)c(C)c2)CC1 [Compound 1294, N-(1-Acetyl-piperidin-4-yl)-N-(3-methyl-4-{(E)-2-[4-oxo-2-(3-trifluoromethoxy-phenyl)-1,3,8-triaza-spiro[4.5]dec-1-ene-8-sulfonyl]-vinyl}-phenyl)-acetamide] |  | 76% |
| CC[C@H]1CC[C@H](C2=NC3(CCN(S(=O)(=O)CCc4ccc(NC5=NCCS5)cc4C)CC3)C(=O)N2)CC1 [Compound 1295, 8-{2-[4-(4,5-Dihydro-thiazol-2-ylamino)-2-methyl-phenyl]-ethanesulfonyl}-2-(4-ethyl-cyclohexyl)-1,3,8-triaza-spiro[4.5]dec-1-en-4-one] | 73% |  |
